Source: ChEMBL document CHEMBL1201862, “PubChem BioAssay data set” (2004)
Active and inactive are the calls of the source.

What was measured:
[1] = molecular target: T1, Delta-type opioid receptor (Homo sapiens, UniProt P41143); assay: HTS Image-Based Screen for Antagonists of the DOR Receptor. [Related pubchem assays (depositor defined):AID1777, AID1785, AID1786, AID2133]; assay type: functional
Mu-type opioid receptor = Mu-type opioid receptor (Homo sapiens, UniProt P35372); assay: HTS Image-Based Screen for Agonists of the MOR Receptor. [Related pubchem assays (depositor defined):AID1777, AID1785, AID1786, AID2133]; assay type: functional;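 note: imaging of beta-arrestin GFP recruitment into spots after receptor activation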
[2] = molecular target: T1, Delta-type opioid receptor; assay: HTS Image-Based Screen for Agonists of the DOR Receptor. [Related pubchem assays (depositor defined):AID1777, AID1786, AID2133]; assay type: functional
[3] = molecular target: T2, Kappa-type opioid receptor (Homo sapiens, UniProt P41145); assay type: functional
T2 sequence (P41145 whole entry): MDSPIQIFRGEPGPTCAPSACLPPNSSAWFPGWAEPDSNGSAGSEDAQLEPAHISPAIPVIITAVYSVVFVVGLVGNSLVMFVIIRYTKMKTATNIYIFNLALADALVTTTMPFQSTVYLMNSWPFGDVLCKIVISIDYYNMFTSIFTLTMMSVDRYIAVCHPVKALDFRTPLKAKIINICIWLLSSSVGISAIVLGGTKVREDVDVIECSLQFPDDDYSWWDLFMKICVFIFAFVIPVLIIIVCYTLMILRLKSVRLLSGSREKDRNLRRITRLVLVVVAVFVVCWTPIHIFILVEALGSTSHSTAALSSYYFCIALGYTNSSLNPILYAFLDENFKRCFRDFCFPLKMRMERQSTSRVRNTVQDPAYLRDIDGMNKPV

[4] = molecular target: T2, Kappa-type opioid receptor; assay type: functional; remark: listed apart in the source
[5] = molecular target: T3, G-protein coupled receptor 55 (Homo sapiens, UniProt Q9Y2T6); assay: inhibition of LPI-stimulated GPR55 beta-arrestin translocation – imaging, U2OS, beta-arrestin-GFP, LPI agonist, primary screen (AID 2013); assay type: functional;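 note: antagonist potency measured as reduced agonist-driven arrestin aggregation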
T3 sequence (Q9Y2T6 whole entry): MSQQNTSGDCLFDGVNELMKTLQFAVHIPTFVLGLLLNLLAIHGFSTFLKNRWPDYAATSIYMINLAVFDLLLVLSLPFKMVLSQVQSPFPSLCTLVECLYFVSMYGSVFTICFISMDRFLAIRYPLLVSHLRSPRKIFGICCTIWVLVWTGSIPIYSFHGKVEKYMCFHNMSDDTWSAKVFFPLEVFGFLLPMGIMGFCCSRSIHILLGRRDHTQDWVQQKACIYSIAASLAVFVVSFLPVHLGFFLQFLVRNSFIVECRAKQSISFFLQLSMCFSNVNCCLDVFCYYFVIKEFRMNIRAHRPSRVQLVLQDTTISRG

Cannabinoid receptor 1 [6] = molecular target: T4, Cannabinoid receptor 1 (Homo sapiens, UniProt P21554); assay: SAR analysis of antagonists of the Cannabinoid Receptor 1 using an Image-Based Assay - Set 2. [Related pubchem assays (depositor defined):AID2013, AID2026]; assay type: functional
T4 sequence (P21554 whole entry): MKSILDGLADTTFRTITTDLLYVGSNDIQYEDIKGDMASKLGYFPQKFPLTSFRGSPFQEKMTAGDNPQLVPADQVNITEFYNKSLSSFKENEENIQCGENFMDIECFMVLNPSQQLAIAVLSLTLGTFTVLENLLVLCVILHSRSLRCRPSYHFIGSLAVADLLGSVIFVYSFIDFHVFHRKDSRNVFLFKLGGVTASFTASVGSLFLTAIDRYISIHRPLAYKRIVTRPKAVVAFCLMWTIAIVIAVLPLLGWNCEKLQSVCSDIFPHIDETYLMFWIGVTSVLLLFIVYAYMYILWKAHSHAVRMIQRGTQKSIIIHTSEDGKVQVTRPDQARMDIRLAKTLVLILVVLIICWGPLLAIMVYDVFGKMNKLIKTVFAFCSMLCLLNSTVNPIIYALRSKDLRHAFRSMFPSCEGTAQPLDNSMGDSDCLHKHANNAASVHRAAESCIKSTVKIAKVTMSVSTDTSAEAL

[7] = molecular target: T5, G-protein coupled receptor 35 (Homo sapiens, UniProt Q9HC97); assay: SAR analysis of Agonists of the GPR35 Receptor using an Image-Based Assay - Set 2. [Related pubchem assays (depositor defined):AID2013, AID2026]; assay type: functional
T5 sequence (Q9HC97 whole entry): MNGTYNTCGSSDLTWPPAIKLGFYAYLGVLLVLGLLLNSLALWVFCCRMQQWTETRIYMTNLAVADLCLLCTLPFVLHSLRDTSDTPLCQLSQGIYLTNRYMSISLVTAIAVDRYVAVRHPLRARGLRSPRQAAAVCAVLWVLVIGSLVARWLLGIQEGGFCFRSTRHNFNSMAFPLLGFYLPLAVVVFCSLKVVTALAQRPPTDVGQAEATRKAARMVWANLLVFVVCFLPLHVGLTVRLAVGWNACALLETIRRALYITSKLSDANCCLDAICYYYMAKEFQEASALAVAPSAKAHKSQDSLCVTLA

Cannabinoid receptor 2 [8] = molecular target: T6, Cannabinoid receptor 2 (Homo sapiens, UniProt P34972); assay: SAR analysis of antagonists of the Cannabinoid Receptor 2 using an Image-Based Assay. [Related pubchem assays (depositor defined):AID2013, AID2026]; assay type: functional
T6 sequence (P34972 whole entry): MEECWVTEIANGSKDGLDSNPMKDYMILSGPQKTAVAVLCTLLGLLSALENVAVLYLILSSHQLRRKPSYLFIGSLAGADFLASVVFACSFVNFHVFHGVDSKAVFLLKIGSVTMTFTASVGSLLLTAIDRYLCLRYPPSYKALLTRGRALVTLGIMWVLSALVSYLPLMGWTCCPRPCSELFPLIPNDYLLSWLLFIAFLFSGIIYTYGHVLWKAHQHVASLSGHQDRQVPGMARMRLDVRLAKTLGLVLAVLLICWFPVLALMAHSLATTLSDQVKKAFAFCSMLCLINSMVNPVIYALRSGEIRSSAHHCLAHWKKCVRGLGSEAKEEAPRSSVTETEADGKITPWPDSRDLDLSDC

Cannabinoid receptor 1 [9] = molecular target: T4, Cannabinoid receptor 1; assay: SAR analysis of agonists of the Cannabinoid Receptor 1 using an Image-Based Assay - Set 2. [Related pubchem assays (depositor defined):AID2013, AID2026]; assay type: functional
[10] = molecular target: T5, G-protein coupled receptor 35; assay: SAR analysis of Antagonists of the GPR35 Receptor using an Image-Based Assay - Set 3. [Related pubchem assays (depositor defined):AID2013, AID2026]; assay type: functional
[11] = molecular target: T3, G-protein coupled receptor 55; assay: blockade of LPI-induced GPR55 arrestin translocation – imaging, U2OS, beta-arrestin-GFP, LPI agonist, set 2, SAR follow-up (AID 2820); assay type: functional
Cannabinoid receptor 2 [12] = molecular target: T6, Cannabinoid receptor 2; assay: SAR analysis of agonists of the Cannabinoid Receptor 2 using an Image-Based Assay. [Related pubchem assays (depositor defined):AID2013, AID2026]; assay type: functional
SUMO-activating enzyme [13] = molecular target: T7, SUMO-activating enzyme (Homo sapiens, UniProt Q9UBT2); assay: blockers of UBC9-mediated SUMO conjugation – biochemical, AlphaScreen, SUMOylation inhibitor project, confirmation (AID 2018); assay type: functional
T7 sequence (Q9UBE0 whole entry): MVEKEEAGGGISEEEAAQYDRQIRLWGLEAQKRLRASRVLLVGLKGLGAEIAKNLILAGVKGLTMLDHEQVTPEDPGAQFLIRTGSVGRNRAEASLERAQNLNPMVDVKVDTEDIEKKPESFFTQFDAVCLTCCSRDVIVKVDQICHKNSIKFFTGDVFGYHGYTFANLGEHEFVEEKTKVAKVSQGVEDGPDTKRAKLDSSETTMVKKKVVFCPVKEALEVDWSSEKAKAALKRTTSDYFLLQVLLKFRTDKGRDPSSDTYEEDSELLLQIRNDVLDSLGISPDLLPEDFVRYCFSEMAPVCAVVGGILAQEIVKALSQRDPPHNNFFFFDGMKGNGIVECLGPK
T7 sequence (Q9UBT2 whole entry): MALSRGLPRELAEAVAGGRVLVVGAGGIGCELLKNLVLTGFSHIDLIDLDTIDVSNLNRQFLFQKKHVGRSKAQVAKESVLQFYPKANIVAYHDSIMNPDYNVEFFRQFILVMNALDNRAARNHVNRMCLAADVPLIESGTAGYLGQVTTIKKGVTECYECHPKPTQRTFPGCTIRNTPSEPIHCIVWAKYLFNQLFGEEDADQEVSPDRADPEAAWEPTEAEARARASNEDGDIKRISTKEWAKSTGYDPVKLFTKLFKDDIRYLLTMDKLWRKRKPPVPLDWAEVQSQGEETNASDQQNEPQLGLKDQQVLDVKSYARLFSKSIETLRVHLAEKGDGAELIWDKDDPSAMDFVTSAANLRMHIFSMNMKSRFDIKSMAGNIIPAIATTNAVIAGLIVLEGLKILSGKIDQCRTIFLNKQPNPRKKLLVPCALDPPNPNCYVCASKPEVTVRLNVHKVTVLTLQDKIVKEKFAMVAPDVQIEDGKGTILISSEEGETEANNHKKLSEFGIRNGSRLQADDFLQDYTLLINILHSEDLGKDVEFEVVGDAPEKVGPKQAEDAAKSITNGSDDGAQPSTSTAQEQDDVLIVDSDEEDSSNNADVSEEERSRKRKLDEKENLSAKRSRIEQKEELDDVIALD

SUMO-activating enzyme [14] = molecular target: T7, SUMO-activating enzyme; assay: blockers of SAE1/SAE2–UBC9 SUMO transfer – biochemical, HTRF, uHTS, primary screen (AID 2006); assay type: protein-complex assay
[15] = molecular target: T8, Replicative DNA helicase DnaB (Mycobacterium tuberculosis, UniProt P9WMR3); assay: DnaB intein splicing inhibitors, dose response, biochemical, cell-free fluorescence (AID 449749); assay type: functional
T8 sequence (P9WMR3 whole entry): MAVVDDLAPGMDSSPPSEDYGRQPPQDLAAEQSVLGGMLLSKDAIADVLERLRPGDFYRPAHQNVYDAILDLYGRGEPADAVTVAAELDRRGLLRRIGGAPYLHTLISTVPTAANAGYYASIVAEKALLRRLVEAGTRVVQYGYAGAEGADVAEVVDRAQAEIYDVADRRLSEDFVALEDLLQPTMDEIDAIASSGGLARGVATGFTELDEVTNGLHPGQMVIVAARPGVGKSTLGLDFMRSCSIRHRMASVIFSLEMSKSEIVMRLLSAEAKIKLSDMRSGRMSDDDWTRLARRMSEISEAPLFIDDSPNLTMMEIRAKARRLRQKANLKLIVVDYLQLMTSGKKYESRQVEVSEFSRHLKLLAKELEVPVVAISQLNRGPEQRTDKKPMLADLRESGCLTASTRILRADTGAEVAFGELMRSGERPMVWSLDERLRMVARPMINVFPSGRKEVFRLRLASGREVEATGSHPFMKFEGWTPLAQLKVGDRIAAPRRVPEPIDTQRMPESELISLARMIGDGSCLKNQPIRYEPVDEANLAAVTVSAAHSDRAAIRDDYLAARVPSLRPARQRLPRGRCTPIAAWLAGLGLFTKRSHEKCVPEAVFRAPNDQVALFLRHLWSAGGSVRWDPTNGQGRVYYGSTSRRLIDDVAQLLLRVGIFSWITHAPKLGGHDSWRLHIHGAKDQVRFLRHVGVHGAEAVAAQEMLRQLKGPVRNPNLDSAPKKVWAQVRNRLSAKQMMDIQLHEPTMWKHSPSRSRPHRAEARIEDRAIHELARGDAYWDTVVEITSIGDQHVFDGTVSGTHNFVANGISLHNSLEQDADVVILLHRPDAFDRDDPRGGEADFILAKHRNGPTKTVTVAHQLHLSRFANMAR

Protein RecA = molecular target: T9, Protein RecA (Mycobacterium tuberculosis, UniProt P9WHJ3); assay: Fluorescence Cell-Free Homogeneous Dose Retest to Identify Inhibitors of RecA-Intein Splicing Activity. [Related pubchem assays (depositor defined):AID2097, AID2223, AID489010, AID492950]; assay type: functional
T9 sequence (P9WHJ3 whole entry): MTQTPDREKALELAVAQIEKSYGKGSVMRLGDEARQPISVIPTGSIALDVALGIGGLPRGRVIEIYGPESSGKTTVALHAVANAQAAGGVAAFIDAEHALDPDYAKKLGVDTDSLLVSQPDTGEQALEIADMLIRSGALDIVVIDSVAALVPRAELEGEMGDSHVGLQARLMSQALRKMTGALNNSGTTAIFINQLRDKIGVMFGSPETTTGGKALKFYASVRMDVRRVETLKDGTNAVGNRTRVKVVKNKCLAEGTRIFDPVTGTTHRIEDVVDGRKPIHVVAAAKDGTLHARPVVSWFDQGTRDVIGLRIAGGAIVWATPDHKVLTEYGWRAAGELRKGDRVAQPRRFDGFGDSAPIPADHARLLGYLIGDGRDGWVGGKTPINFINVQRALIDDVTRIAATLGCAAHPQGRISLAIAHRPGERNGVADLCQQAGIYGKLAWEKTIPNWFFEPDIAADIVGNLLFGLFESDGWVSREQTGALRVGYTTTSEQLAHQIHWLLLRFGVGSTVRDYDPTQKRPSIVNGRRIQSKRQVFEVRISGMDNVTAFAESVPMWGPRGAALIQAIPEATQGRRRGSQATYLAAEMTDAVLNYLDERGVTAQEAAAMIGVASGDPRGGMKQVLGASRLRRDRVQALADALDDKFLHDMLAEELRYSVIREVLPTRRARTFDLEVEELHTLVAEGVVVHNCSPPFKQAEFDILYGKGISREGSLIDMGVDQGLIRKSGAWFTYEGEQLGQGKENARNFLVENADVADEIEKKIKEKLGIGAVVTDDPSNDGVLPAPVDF

Genome polyprotein = Genome polyprotein (dengue virus type 2, UniProt P29990); assay: flavivirus cap methylation enzyme inhibition – biochemical, confirmation dose response, primary screen (AID 588689); assay type: functional
Genome polyprotein, sequence (P29990 2492-3391 limits assumed): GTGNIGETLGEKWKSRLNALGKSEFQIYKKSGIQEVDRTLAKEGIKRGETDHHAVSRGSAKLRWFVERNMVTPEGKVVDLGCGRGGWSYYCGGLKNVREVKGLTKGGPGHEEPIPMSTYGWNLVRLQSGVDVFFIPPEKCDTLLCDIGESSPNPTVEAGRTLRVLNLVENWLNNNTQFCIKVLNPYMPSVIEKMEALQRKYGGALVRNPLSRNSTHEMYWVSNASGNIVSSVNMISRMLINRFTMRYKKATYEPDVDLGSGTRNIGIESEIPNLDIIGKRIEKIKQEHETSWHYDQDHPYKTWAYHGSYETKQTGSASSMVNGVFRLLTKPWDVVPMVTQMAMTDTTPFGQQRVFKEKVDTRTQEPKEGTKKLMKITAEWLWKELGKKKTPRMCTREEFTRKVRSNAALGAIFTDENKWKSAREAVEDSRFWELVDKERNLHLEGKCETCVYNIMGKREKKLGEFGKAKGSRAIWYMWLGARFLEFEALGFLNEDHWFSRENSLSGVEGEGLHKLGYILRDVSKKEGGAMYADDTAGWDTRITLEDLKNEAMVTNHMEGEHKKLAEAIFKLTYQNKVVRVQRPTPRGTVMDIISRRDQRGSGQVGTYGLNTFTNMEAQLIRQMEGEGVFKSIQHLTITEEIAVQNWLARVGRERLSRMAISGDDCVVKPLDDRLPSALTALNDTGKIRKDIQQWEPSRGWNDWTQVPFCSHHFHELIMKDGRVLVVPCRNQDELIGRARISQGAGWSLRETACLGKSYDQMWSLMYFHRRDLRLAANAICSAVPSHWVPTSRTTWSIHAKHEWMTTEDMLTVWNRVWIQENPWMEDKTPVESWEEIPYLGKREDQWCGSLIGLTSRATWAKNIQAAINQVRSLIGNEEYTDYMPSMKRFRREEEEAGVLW

[16] = luciferase reporter signal suppression in cells – H4 neuroglioma cells, luminescence, dose response (AID 1990); assay type: functional, cell-based
[17] = Luminescence Cell-Based Dose Response HTS to Identify Inhibitors of 5'UTR Stem-Loop Driven Prion Protein mRNA Translation in H4 Neuroglioblastoma Cells. [Related pubchem assays: 1827 (Project Summary), 1813 (Primary HTS)]; assay type: functional
[18] = alpha-synuclein stem-loop luciferase translation blockers – H4 neuroglioma cells, luminescence, confirmation (AID 1988); assay type: functional, cell-based
[19] = molecular target: Lysine-specific demethylase 4C (Homo sapiens, UniProt Q9H3R0); assay: inhibition of JMJD2C H3K9me3 demethylation – biochemical, DELFIA europium, cherry-picked samples, dose response (AID 488835); assay type: functional
INS1 = assay: INS-1E survival protection against cytokine death – cell-based, luminescence, retest, dose response (AID 449756); assay type: functional; conditions: Rattus norvegicus;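 note: cell death triggered by IL-1 beta plus TNF-alpha plus IFN-gamma mixture; protective hits raise ATP signal compared with cytokine alone wells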
Beta-galactosidase = Beta-galactosidase (Escherichia coli, UniProt Q8VNN2); assay: detection-enzyme interference by beta-gal modulators – biochemical, E. coli enzyme, set 3, artefact control for CCR6 antagonist project, dose response (AID 504712); assay type: functional
Apelin receptor = Apelin receptor (Homo sapiens, UniProt P35414); assay: apelin receptor antagonists, arrestin read-out – cell-based, luminescent, enzyme-fragment complementation, selectivity assay for CCR6 antagonist project, SAR follow-up (AID 588359); assay type: functional
[20] = molecular target: T10, Intestinal-type alkaline phosphatase (Homo sapiens, UniProt P09923); assay: Dose Response confirmation of uHTS hits from a small molecule inhibitors of human intestinal alkaline phosphatase via a luminescent assay. [Related pubchem assays (depositor defined):AID2544, AID2574]; assay type: functional
T10 sequence (P09923 whole entry): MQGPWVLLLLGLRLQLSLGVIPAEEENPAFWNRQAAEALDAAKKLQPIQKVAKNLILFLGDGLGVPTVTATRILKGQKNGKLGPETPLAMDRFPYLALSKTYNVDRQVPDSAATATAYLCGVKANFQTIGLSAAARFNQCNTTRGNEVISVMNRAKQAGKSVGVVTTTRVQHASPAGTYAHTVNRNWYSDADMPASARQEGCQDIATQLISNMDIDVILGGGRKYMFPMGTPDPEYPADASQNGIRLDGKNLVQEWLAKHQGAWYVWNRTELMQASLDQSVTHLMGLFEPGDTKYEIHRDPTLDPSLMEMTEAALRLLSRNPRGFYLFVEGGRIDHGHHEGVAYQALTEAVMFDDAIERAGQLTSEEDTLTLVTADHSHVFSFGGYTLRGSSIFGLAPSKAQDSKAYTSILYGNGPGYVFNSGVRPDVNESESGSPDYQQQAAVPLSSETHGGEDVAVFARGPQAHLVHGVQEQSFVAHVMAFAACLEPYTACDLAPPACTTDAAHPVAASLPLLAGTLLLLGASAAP

[21] = molecular target: T10, Intestinal-type alkaline phosphatase; assay: human intestinal alkaline phosphatase activators, dose response, biochemical, luminescence, uHTS hits (AID 463120); assay type: functional
[22] = molecular target: Intestinal-type alkaline phosphatase (Mus musculus, UniProt P24822); assay: PubChem AID 488785; assay type: functional
[23] = molecular target: T11, Alkaline phosphatase, tissue-nonspecific isozyme (Homo sapiens, UniProt P05186); assay: TNAP enzyme inhibition by screening hits, dose response, selectivity assay for mouse IAP inhibitor project, biochemical, human TNAP, uHTS hits (AID 488906); assay type: functional
T11 sequence (P05186 whole entry): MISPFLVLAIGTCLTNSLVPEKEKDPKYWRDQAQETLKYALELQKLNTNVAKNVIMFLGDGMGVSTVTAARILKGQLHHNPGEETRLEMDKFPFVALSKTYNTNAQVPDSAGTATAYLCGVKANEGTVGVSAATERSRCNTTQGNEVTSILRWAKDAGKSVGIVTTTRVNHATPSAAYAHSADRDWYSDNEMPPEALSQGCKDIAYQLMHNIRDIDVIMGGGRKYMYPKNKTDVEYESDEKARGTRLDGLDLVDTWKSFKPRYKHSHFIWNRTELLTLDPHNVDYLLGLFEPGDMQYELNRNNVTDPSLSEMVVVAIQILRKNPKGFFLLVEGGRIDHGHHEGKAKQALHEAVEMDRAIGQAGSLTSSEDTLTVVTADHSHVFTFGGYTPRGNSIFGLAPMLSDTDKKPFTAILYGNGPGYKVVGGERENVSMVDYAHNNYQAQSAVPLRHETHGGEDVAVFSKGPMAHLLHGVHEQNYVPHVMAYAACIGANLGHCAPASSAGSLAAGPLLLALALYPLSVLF

[24] = molecular target: T10, Intestinal-type alkaline phosphatase; assay: inhibition of human intestinal alkaline phosphatase – biochemical, dose response (AID 488876); assay type: functional

T1 sequence (P41143 whole entry): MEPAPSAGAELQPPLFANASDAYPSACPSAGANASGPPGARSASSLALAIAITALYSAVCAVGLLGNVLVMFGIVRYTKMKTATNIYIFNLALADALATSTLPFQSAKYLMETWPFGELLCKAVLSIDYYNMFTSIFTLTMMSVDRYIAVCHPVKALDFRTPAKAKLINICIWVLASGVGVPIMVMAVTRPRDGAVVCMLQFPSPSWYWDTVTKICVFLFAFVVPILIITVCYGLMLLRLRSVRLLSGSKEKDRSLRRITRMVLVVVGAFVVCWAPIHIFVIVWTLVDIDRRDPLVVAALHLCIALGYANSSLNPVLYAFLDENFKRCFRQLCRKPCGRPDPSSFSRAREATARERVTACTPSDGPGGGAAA

COc1ccc(C[C@@H]2CN3C(=NC[C@@H]3C)N2CCNC(=O)c2ccc(C)c(Br)c2)cc1
IC50 [1]: > 32 µM (inactive) | EC50 (Mu-type opioid receptor): > 32 µM (inactive) | EC50 [2]: > 32 µM (inactive) | EC50 [3]: < 0.5 µM | EC50 [4]: 0.118 µM

Cc1ccc2c(c1)C(c1ccc(O)cc1)(c1ccc(O)cc1)C(=O)N2C
IC50 [5]: 1.57 µM (active) | IC50 (Cannabinoid receptor 1 [6]): 5.74 µM (active) | EC50 [7]: > 32 µM (inactive) | IC50 (Cannabinoid receptor 2 [8]): > 32 µM (inactive) | EC50 (Cannabinoid receptor 1 [9]): > 32 µM (inactive) | IC50 [10]: > 32 µM (inactive) | IC50 [11]: 1 µM (active) | EC50 (Cannabinoid receptor 2 [12]): > 32 µM (inactive)

COc1cc(/C=C2\C(=O)N(c3ccc(S(N)(=O)=O)cc3)N=C2C)ccc1OC(=O)c1ccco1
IC50 (SUMO-activating enzyme [13]): 6.36 µM (active) | IC50 (SUMO-activating enzyme [14]): > 100 µM (inactive) | AC50 [15]: > 380 µM (inactive) | EC50 (Protein RecA): 23.8 µM (active) | IC50 (Genome polyprotein): 73.2 µM (active)

O=C(CNC(=O)c1ccccc1O)N/N=C/c1cc(Br)ccc1OC(=O)/C=C/c1ccco1
EC50 [16]: 10.7 µM (active) | EC50 [17]: 7.28 µM (active) | EC50 [18]: 9.47 µM (active) | AC50 [19]: 10.8 µM (active) | AC50 (INS1): 3.13 µM (active)

CC(C)(C)c1ccc2c(c1)OC(C(=O)N/N=C\c1ccccn1)CO2 (stereo not given)
IC50 (Beta-galactosidase): > 66.6 µM (inactive) | IC50 (Apelin receptor): 28.8 µM (inactive)

CN1CCN(CCNC(=O)Cn2c(=O)c3cccn3c3ccc(F)cc32)CC1
IC50 [20]: > 100 µM (inactive) | EC50 [21]: > 100 µM (inactive)

CCOC(=O)c1ccc(N2CCN(c3ccccc3F)CC2)c(NC(=O)Nc2ccccc2)c1
IC50 [22]: 8.66 µM (active) | IC50 [23]: > 100 µM (inactive) | IC50 [24]: > 100 µM (inactive)
